Article PMC4868737, “BAY 1024767 blocks androgen receptor mutants found in castration-resistant prostate cancer patients” (Oncotarget, 2016)
Changes are numbered by the printed parent chain.

Tests used:
[1] = biological target: AR M895T (Homo sapiens, UniProt P10275, M895T/M896T); test: cell-based; conditions: IC50 (antagonistic activity)
[2] = biological target: AR L701H (Homo sapiens, UniProt P10275, L701H/L702H); test: cell-based; conditions: IC50 (antagonistic activity)
[3] = test system: PSA and FKBP5 expression in LNCaP cells (AR T877A mutant); test: mRNA expression of androgen target genes (real-time PCR); format: cell-based, human; conditions: 1 nM R1881, 24 h
Procedure: (§1) VCaP or LNCaP cells were seeded into 6-well plates in RPMI 1640 medium without phenol red, supplemented with 10% charcoal-stripped fetal calf serum (cFCS) and 2 mM stable glutamine, and maintained for 2 days prior to treatment. […] After 24 h treatment, total RNA was extracted using the RNeasy Mini Kit (Qiagen, Hilden, Germany) and reverse-transcription was performed using the SuperScript™ III First-Strand Synthesis SuperMix for qRT-PCR (Invitrogen, Carlsbad, […]). Transcript levels of AR target genes were determined by real-time PCR using the following assays (Applied Biosystems, Foster City, CA, USA): PSA Hs02576345_m1 and FKBP5 Hs00188025_m1. Human PPIA (Cyclophilin A) 4326316E was used as an internal control.

[4] = test system: PSA and FKBP5 expression in VCaP cells (AR wild-type); test: as above; format: cell-based, human; conditions: 1 nM R1881, 24 h
Procedure: as §1

[5] = test system: AR wild-type and the mutants E709Y, V715M, W741C and H874Y; test: Immunofluorescence of AR sub-cellular localization in transfected COS-7 cells; conditions: 4 h
Procedure: For staining, culture medium was removed and the cells were washed three times with PBS. […] The cells were then washed, stained with 300 nM DAPI in PBS for 5 min, and sealed with a coverslip. Cells were imaged on an LSM700 confocal laser scanning microscope (Zeiss, Göttingen, Germany), using a 25X objective. Quantification of COS-7 cells was performed on 25 cells in two replicates using ImageJ software.

[6] = biological target: T1, AR W741C (Homo sapiens, UniProt P10275, W742C); test: cell-based; conditions: IC50 (antagonistic activity)
T1 sequence (P10275 1-920 W742C): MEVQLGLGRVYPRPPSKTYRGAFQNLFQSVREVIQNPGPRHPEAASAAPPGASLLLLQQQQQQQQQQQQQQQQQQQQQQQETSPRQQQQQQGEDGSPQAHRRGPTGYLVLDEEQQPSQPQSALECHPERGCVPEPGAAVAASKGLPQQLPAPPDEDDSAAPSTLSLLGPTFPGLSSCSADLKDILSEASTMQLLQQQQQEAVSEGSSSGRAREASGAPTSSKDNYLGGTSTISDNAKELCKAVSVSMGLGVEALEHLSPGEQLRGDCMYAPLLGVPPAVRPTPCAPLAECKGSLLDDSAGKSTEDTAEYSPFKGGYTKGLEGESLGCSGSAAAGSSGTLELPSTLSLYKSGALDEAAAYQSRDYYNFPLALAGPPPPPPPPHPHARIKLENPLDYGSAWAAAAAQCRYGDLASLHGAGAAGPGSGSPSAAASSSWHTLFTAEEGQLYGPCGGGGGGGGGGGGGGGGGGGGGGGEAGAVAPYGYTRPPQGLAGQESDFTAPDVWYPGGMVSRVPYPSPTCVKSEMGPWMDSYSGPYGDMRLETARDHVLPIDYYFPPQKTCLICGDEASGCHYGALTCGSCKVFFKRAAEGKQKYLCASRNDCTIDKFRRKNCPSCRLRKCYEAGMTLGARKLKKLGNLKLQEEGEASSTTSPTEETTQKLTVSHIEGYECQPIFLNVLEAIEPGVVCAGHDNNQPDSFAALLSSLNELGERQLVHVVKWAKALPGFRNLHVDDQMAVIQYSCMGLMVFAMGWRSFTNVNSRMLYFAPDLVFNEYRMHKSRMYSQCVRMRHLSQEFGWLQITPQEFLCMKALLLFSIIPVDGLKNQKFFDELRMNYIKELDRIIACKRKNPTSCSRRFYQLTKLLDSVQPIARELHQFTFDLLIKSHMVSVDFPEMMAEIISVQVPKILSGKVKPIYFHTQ

[7] = biological target: T2, AR wild-type (Homo sapiens, UniProt P10275); test: cell-based; conditions: IC50 (antagonistic activity)
T2 sequence (P10275 1-920): T1 sequence (P10275 1-920 W742C) with C742W

[8] = Unbound plasma concentrations after multiple oral doses in male SCID mice; format: in vivo, mouse; conditions: multiple oral doses of 50 mg/kg every second day
Text: Pharmacokinetic profiles in mouse.
indicate in vitro unbound anti-proliferative GI50 values measured in VCaP cells. Unbound concentrations -/+ SD for 2-3
(1 picture or pasted object on this page, not shown here)

CC(C)(O)COc1ccc(CN2C(=S)N(c3ccc(C#N)c(C(F)(F)F)c3)C(=O)C2(C)C)cn1 [BAY 1024767]
IC50 ([1]; R1881 1 nM): 37 nM
IC50 ([1]; R1881 10 nM): 220 nM
IC50 ([2]; R1881 1 nM): 718 nM
IC50 ([2]; R1881 10 nM): 1380 nM
PSA and FKBP5 expression [3]: dose-dependent down-regulations
PSA and FKBP5 expression [4]: dose-dependent down-regulations
AR nuclear translocation in the presence of R1881 ([5]; 1 nM R1881, 1 μM BAY 1024767): did not prevent nuclear translocation
AR nuclear localization in the absence of R1881 ([5]; 1 μM BAY 1024767 or 5 μM enzalutamide): promoted nuclear localization
IC50 ([6]; R1881 0.1 nM): 49 nM
IC50 ([6]; R1881 1 nM): 190 nM
IC50 ([6]; R1881 10 nM): 890 nM
IC50 ([7]; R1881 0.1 nM): 46 nM
IC50 ([7]; R1881 1 nM): 260 nM
IC50 ([7]; R1881 10 nM): 1600 nM
unbound plasma concentrations versus unbound anti-proliferative GI50 in VCaP cells [8]: remained over the unbound anti-proliferative GI50 values
